Test results from patent US7811599B2, “Pharmaceutical combinations comprising a fungicide, a bacteriostatic sulphonamide and an antibacterial compound for topical application” (priority 2001, dated 2010).
In brackets after ≈: the same amount, converted by molar mass.

Columns and labels:
Assay type in all cases: cell-based
[1] = system: Candida albicans; assay: MIC values of active ingredients (in nutrient liquid); details: Table I
Experimental: (§1) For fungi: Sabouraud nutrient liquid containing glucose, […] digested casein and water. The experiments are carried out in an ambience free of germs. […] The following compounds were tested: azithromycin, clarithromycin, erythromycin, miconazole, […]-sulphate. Test organisms: Bacteria: Escherichia coli, Pseudomonas aeruginosa, Serratia marcescens, Staphylococcus aureus, Streprococcus pyogenes. Fungi: Aspergillus flavus, Fusarium oxysporum, Candida albicans, Candida parapsilosus. Nutrient media: Soye bouillon, Sabouraud nutrient liquor. Solvents: methanol a.r. and for […]-sulphate the mixture of butanol:ethanol:water in the ratio of 1:1:2. Negative control: nutrient medium exempt of test organisms. Positive control: nutrient medium and 10 μL of the inoculum. Following preparation of the inoculum and incubation the MIC values were determined according to the above.

[2] = system: Candida parapsilosis; assay: as above; details: Table I; for MIC: Lodderomyces parapsilosis
Experimental: as §1

[3] = system: Fusarium oxysporum; assay: as above; details: Table I
Experimental: as §1

[4] = system: Aspergillus flavus; assay: as above; details: Table I
Experimental: as §1

[5] = system: Staphylococcus aureus; assay: as above; details: Table I
Experimental: (§2) The experiments are carried out in an ambience free of germs. […] The following compounds were tested: azithromycin, clarithromycin, erythromycin, miconazole, […]-sulphate. Test organisms: Bacteria: Escherichia coli, Pseudomonas aeruginosa, Serratia marcescens, Staphylococcus aureus, Streprococcus pyogenes. Fungi: Aspergillus flavus, Fusarium oxysporum, Candida albicans, Candida parapsilosus. Nutrient media: Soye bouillon, Sabouraud nutrient liquor. Solvents: methanol a.r. and for […]-sulphate the mixture of butanol:ethanol:water in the ratio of 1:1:2. Negative control: nutrient medium exempt of test organisms. Positive control: nutrient medium and 10 μL of the inoculum. Following preparation of the inoculum and incubation the MIC values were determined according to the above.

[6] = system: Escherichia coli; assay: as above; details: Table I
Experimental: as §2

[7] = system: Streptococcus pyogenes; assay: as above; details: Table I
Experimental: as §2

[8] = system: Pseudomonas aeruginosa; assay: as above; details: Table I
Experimental: as §2

[9] = system: Serratia marcescens; assay: as above; details: Table I
Experimental: as §2

[10] = system: all tested bacteria and fungi; assay: MIC values of active ingredients on 9 different microbe strains, summary in words; details: summary of Table I
Experimental: For fungi: Sabouraud nutrient liquid containing glucose, tripsine digested casein and water.
The experiments are carried out in an ambience free of germs.
The following compounds were tested: azithromycin, clarithromycin, erythromycin, miconazole, primicin-sulphate. Test organisms: Bacteria: Escherichia coli, Pseudomonas aeruginosa, Serratia marcescens, Staphylococcus aureus, Streprococcus pyogenes. Fungi: Aspergillus flavus, Fusarium oxysporum, Candida albicans, Candida parapsilosus. Nutrient media: Soye bouillon, Sabouraud nutrient liquor. Solvents: methanol a.r. and for primicin-sulphate the mixture of butanol:ethanol:water in the ratio of 1:1:2. Negative control: nutrient medium exempt of test organisms. Positive control: nutrient medium and 10 μL of the inoculum.
Following preparation of the inoculum and incubation the MIC values were determined according to the above.

| Molecule | MIC [1] [µg/mL] | MIC [2] [µg/mL] | MIC [3] [µg/mL] | MIC [4] [µg/mL] | MIC [5] [µg/mL] | MIC [6] [µg/mL] | MIC [7] [µg/mL] | MIC [8] [µg/mL] | MIC [9] [µg/mL] | activity in the MIC test, in words [10] | MIC values [1] [µg/mL] | MIC values [2] [µg/mL] | MIC values [3] | MIC values [4] | MIC values [5] [µg/mL] | MIC values [6] | MIC values [7] [µg/mL] | MIC values [8] | MIC values [9] |
| --- | --- | --- | --- | --- | --- | --- | --- | --- | --- | --- | --- | --- | --- | --- | --- | --- | --- | --- | --- |
| CC[C@H]1OC(=O)[C@H](C)[C@@H](O[C@H]2C[C@@](C)(OC)[C@@H](O)[C@H](C)O2)[C@H](C)[C@@H](O[C@@H]2O[C@H](C)C[C@H](N(C)C)[C@H]2O)[C@](C)(OC)C[C@@H](C)C(=O)[C@H](C)[C@@H](O)[C@]1(C)O [clarithromycin] | > 100 | > 100 | > 100 | > 100 | 0.2 (≈ 0.267 µM) | 95 (≈ 127 µM) | 1 (≈ 1.34 µM) | 80 (≈ 107 µM) | 100 (≈ 134 µM) | – | – | – | – | – | – | – | – | – | – |
| CC[C@H]1OC(=O)[C@H](C)[C@@H](O[C@H]2C[C@@](C)(OC)[C@@H](O)[C@H](C)O2)[C@H](C)[C@@H](O[C@@H]2O[C@H](C)C[C@H](N(C)C)[C@H]2O)[C@](C)(O)C[C@@H](C)CN(C)[C@H](C)[C@@H](O)[C@]1(C)O [azithromycin] | > 500 | 500 (≈ 668 µM) | > 500 | > 500 | 2 (≈ 2.67 µM) | 6 (≈ 8.01 µM) | 3 (≈ 4.01 µM) | 65 (≈ 86.8 µM) | 8 (≈ 10.7 µM) | effective on all tested bacteria | – | – | – | – | – | – | – | – | – |
| primycin | – | – | – | – | – | – | – | – | – | acceptably active against Candida type fungi but not against all tested bacteria | 18 | 5.0 | 100< μg/ml | 100< μg/ml | 0.2 | 100< μg/ml | 0.5 | 100< μg/ml | 100< μg/ml |
| Clc1ccc(COC(Cn2ccnc2)c2ccc(Cl)cc2Cl)c(Cl)c1 (stereo not drawn) [miconazole] | 0.5 (≈ 1.2 µM) | 0.2 (≈ 0.481 µM) | > 8 | 2 (≈ 4.81 µM) | 3 (≈ 7.21 µM) | > 500 | 0.5 (≈ 1.2 µM) | > 500 | > 500 | inhibits all tested fungi and cocci | – | – | – | – | – | – | – | – | – |
| CC[C@H]1OC(=O)[C@H](C)[C@@H](O[C@H]2C[C@@](C)(OC)[C@@H](O)[C@H](C)O2)[C@H](C)[C@@H](O[C@@H]2O[C@H](C)C[C@H](N(C)C)[C@H]2O)[C@](C)(O)C[C@@H](C)C(=O)[C@H](C)[C@@H](O)[C@]1(C)O [erythromycin] | > 500 | 500 (≈ 681 µM) | > 500 | > 500 | 1 (≈ 1.36 µM) | 100 (≈ 136 µM) | 3 (≈ 4.09 µM) | 90 (≈ 123 µM) | 300 (≈ 409 µM) | – | – | – | – | – | – | – | – | – | – |
